According to patent US20260226092A1, “COCRYSTALS OF CORTEXOLONE 17-PROPIONATE AND METHODS FOR THEIR PREPARATION” (Farmabios S.p.A., priority 2023, published 2026):
Values after ≈ are worked out from the molar mass of the structure shown. Like-named read-outs stand apart in the source and are kept apart here.

How the values were obtained:
[1] = Kinetic solubility study in aqueous buffers (HPLC of mother liquors); assay type: physicochemical; conditions: for solubility at 30 min: aqueous buffer, thermodynamic from solid, read-out: highest solubility; for Conc 1st duplicate / Conc 2nd duplicate / Conc Average: room temperature
Procedure: Each sample was analyzed in duplicate. Cocrystals form J and G as well as the crystalline form III were previously grounded with mortar and pestle to reduce the particle size effects. […] At scheduled timing (0.5 h, 1 h, 3 h, 5 h, 24 h), aliquots of approximately 3 ml were withdrawn and filtered. Mother liquors were analyzed in triplicate by HPLC, and their pH values checked by pH me[…]/conductometer, Methron).

[2] = Wettability analysis (contact angle, ultrapure water); assay type: physicochemical; conditions: room temperature
Procedure: Wettability analysis has been carried out by a contact angle meter (Kyowa Interface Science, made in Japan, model: DMe-211Plus) with FAMAS software for data processing.
The contact angle of cocrystals (Form J and G) and Form III (reference) was evaluated at room temperature using ultrapure water (by MilliQ system). Cocrystals (Form J and G) and Form III were previously grounded with a mortar and pestle to limit the effect of particle sizes. Then, approximately 27 mg of each sample were collected on a glass substrate limited to a Teflon O-ring (6.0 mm diameter) and gently leveled by a spatula. The contact time between the drop and sample was set at 9 s and the aqueous falling volume was 2.0 μl.

SMILES: CCC(=O)O[C@]1(C(=O)CO)CC[C@H]2[C@@H]3CCC4=CC(=O)CC[C@]4(C)[C@H]3CC[C@@]21C [Form III, cortexolone 17α-propionate]
- solubility at 30 min ([1]; acetate buffer, pH 5.1, room temperature, maximum over 0.5-24 h (Form J and G after 1 h, Form III after 30 min)): 18.07 ± 0.06 µg/mL (≈ 44.9 µM)
- dissolution (in words) ([1]; pH 5.1, room temperature): faster than the one at pH 6.0
- Conc 1st duplicate ([1]; pH 5.1 buffer, 30 min): 18070 ng/mL
- Conc 2nd duplicate ([1]; pH 5.1 buffer, 30 min): 18120 ng/mL
- Conc Average ([1]; pH 5.1 buffer, 30 min): 18070 ng/mL
- Conc 1st duplicate ([1]; pH 5.1 buffer, 1 h): 10020 ng/mL
- Conc 2nd duplicate ([1]; pH 5.1 buffer, 1 h): 10000 ng/mL
- Conc Average ([1]; pH 5.1 buffer, 1 h): 10010 ng/mL
- Conc 1st duplicate ([1]; pH 5.1 buffer, 3 h): 16960 ng/mL
- Conc 2nd duplicate ([1]; pH 5.1 buffer, 3 h): 16820 ng/mL
- Conc Average ([1]; pH 5.1 buffer, 3 h): 16890 ng/mL
- Conc 1st duplicate ([1]; pH 5.1 buffer, 5 h): 14680 ng/mL
- Conc 2nd duplicate ([1]; pH 5.1 buffer, 5 h): 15020 ng/mL
- Conc Average ([1]; pH 5.1 buffer, 5 h): 14770 ng/mL
- Conc 1st duplicate ([1]; pH 5.1 buffer, 24 h): 2590 ng/mL
- Conc 2nd duplicate ([1]; pH 5.1 buffer, 24 h): 2600 ng/mL
- Conc Average ([1]; pH 5.1 buffer, 24 h): 2600 ng/mL
- Conc 1st duplicate ([1]; pH 6.0 buffer, 30 min): 4380 ng/mL
- Conc 2nd duplicate ([1]; pH 6.0 buffer, 30 min): 4370 ng/mL
- Conc Average ([1]; pH 6.0 buffer, 30 min): 4380 ng/mL
- Conc 1st duplicate ([1]; pH 6.0 buffer, 1 h): 3580 ng/mL
- Conc 2nd duplicate ([1]; pH 6.0 buffer, 1 h): 3560 ng/mL
- Conc Average ([1]; pH 6.0 buffer, 1 h): 3570 ng/mL
- Conc 1st duplicate ([1]; pH 6.0 buffer, 3 h): 11150 ng/mL
- Conc 2nd duplicate ([1]; pH 6.0 buffer, 3 h): 10970 ng/mL
- Conc Average ([1]; pH 6.0 buffer, 3 h): 11060 ng/mL
- Conc 1st duplicate ([1]; pH 6.0 buffer, 5 h): 1920 ng/mL
- Conc 2nd duplicate ([1]; pH 6.0 buffer, 5 h): 1920 ng/mL
- Conc Average ([1]; pH 6.0 buffer, 5 h): 1920 ng/mL
- Conc 1st duplicate ([1]; pH 6.0 buffer, 24 h): 4020 ng/mL
- Conc 2nd duplicate ([1]; pH 6.0 buffer, 24 h): 4030 ng/mL
- Conc Average ([1]; pH 6.0 buffer, 24 h): 4020 ng/mL
- solubility at 30 min ([1]; phosphate buffer, pH 6.0, room temperature, maximum over 0.5-24 h (Form J and Form III 30 min, Form G after 1 h)): 15.97 ± 0.04 µg/mL (≈ 39.7 µM)
- Wettability character (hydrophilic: contact angle <90 degrees; hydrophobic: >90 degrees) [2]: hydrophilic
- Contact angle Sample 1 ([2]; 2.0 μl drop, contact time 9 s): 76.8 degrees
- Contact angle Sample 2 ([2]; 2.0 μl drop, contact time 9 s): 75.0 degrees
- Contact angle Sample 3 ([2]; 2.0 μl drop, contact time 9 s): 81.2 degrees
- Contact angle Average ([2]; average of samples 1-3): 77.67 degrees
